In article PMC6154583, “Optimized 4,5-Diarylimidazoles as Potent/Selective Inhibitors of Protein Kinase CK1δ and Their Structural Relation to p38α MAPK” (Molecules : A Journal of Synthetic Chemistry and Natural …, 2017):

Columns and labels:
[1] = Chemical stability in DMSO solution by HPLC analysis; type: physicochemical; details: within a short period of time after preparing a solution in DMSO
From the text: The binding modes described above are based on (E)-configured cinnamic moieties of 1 and 2, respectively. […] Accordingly, computational analysis assume these (Z)-stereoisomers to be less bioactive. Furthermore, the acrylamide Michael acceptor moiety of the cinnamic acid side chain was considered responsible for the observed chemical instability of 1 and 2 in solution. […] Consequently, our primary goal towards an optimized inhibitor was to gain chemical stability. Thus, having identified the cinnamic side chain to be responsible for the chemical instability issue we aimed towards stable side chains attached at the validated 2-aminopyridine core moiety. By these modifications we set out to explore the respective hydrophobic region II formerly occupied by the cinnamic acid moiety. At the same time, both potency and selectivity for CK1δ were taken into account. Therefore, in our systematic approach four structurally divergent series of inhibitors with variable side chains (Scheme 1) have been designed based on the following considerations.
They were stable in DMSO solution at room temperature without detectable degradation over a period of 72 h by HPLC analysis.

CK1ε = test system: CK1ε; parameters: method as in PMID 19591487; details: cited from earlier work
Colo357 cells = assay: MTT viability assay; type: cell-based, human; details: mean ± SD, n = 3
Protocol: (§1) The human pancreatic cancer cell lines Colo357 [61], Panc-1 [62], and MiaPaCa-2 [63] were grown in Dulbecco’s modified Eagle’s medium (DMEM). Panc89 [64] was grown in DMEM:RPMI-1640 medium in ratio 1:1. The human colon adenocarcinoma cell line HT-29 [65] was grown in McCoy’s 5A medium. All media were supplemented with 10% fetal calf serum (FCS), 100 units·mL^−1 penicillin, 100 µg∙mL^−1 streptomycin and 2 mM glutamine. All cells were grown at 37 °C in a humidified 5% carbon dioxide atmosphere.
(§2) In order to determine the cytotoxic effects of investigated inhibitors conventional MTT assay were used. 1 × 10^4 cells∙well^−1 were seeded in 96-well cell culture plates and cultivated for 24 h. Cell lines were exposed to increasing concentrations of the indicated inhibitor compounds, with untreated and DMSO-treated cells serving as control. After an incubation period of 48 h 10 µL of MTT solution (5 mg∙mL^−1 in PBS) were added and cells were incubated for 4 h. MTT-containing medium was carefully removed and 100 µL acidic isopropanol (0.04 N HCl in isopropanol) per well were added. For dissolution of formazan crystals plates were shaken for 30 min on an orbital shaker in the dark. Finally, dissolved crystals were measured spectrophotometrically at […]. All experiments were performed in triplicate with four technical replicates per assay. Results were normalized considering the mean optical density value of control wells as 100%. GraphPad Prism 6 (La Jolla, CA, USA) software was used to calculate EC50 values.

Panc89 cells = assay: MTT viability assay; type: cell-based, human; details: 48 h incubation, mean ± SD, n = 3
Protocol: as §1, §2

HT-29 cells = assay: MTT viability assay; type: cell-based; details: Homo sapiens, dilution series
Protocol: as §1
In order to determine the cytotoxic effects of investigated inhibitors conventional MTT assay were used. 1 × 10^4 cells∙well^−1 were seeded in 96-well cell culture plates and cultivated for 24 h. Cell lines were exposed to increasing concentrations of the indicated inhibitor compounds, with untreated and DMSO-treated cells serving as control. After an incubation period of 48 h 10 µL of MTT solution (5 mg∙mL^−1 in PBS) were added and cells were incubated for 4 h. […] Finally, dissolved crystals were measured spectrophotometrically at 570 nM. […]
Figure S1. (A) HT-29 cells were treated with compounds of series 1 at 20 µM concentration and cell viability was measured by MTT viability assay. […]
screening at 20 µM concentration. Cell viability was determined by MTT assay and the EC50 value was calculated using GraphPad Prism 6. […]

MiaPaCa-2 cells = assay: MTT viability assay; type: cell-based, human; details: mean ± SD, n = 3
Protocol: as §1, §2

Panc-1 cells = assay: MTT viability assay; type: cell-based, human; details: mean ± SD, n = 3
Protocol: as §1, §2

CK1δ = CK1δ (Homo sapiens, UniProt P48730); parameters: method as in PMID 19591487; details: CK1δ versus CK1ε; cited from earlier work
CK1δ/ε = details: read-out: IC50 CK1δ/ε; cited from earlier work
CK1α = details: read-out: IC50 CK1α; cited from earlier work
[2] = Homo sapiens, COLO357, 48 h incubation
[3] = Homo sapiens, MIA PaCa-2, 48 h incubation
[4] = Homo sapiens, PANC-1, 48 h incubation

Chain of CK1δ (P48730 whole entry): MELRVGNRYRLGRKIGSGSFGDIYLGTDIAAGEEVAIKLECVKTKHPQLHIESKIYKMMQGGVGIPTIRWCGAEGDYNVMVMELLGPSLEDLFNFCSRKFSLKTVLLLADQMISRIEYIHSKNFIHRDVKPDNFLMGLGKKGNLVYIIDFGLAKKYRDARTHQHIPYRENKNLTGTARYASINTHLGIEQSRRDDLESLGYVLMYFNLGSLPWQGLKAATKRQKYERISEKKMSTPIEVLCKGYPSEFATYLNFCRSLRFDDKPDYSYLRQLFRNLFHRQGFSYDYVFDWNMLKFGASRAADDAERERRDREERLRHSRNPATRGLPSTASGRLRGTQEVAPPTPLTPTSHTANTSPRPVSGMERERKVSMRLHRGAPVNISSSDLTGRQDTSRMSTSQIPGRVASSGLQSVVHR

SMILES: COc1ccc(/C=C/C(=O)Nc2cc(-c3nc(SC)[nH]c3-c3ccc(F)cc3)ccn2)c(OC)c1 [compound 1]
- chemical stability in DMSO solution (HPLC analysis) [1]: increasing number of not identifiable degradation products
- IC50 (CK1ε): 0.073 µM

SMILES: CSc1nc(-c2ccnc(NC(=O)Nc3ccc(C)c(Cl)c3)c2)c(-c2ccc(F)cc2)[nH]1 [12e, 1-(3-Chloro-4-methylphenyl)-3-(4-(5-(4-fluorophenyl)-2-(methylthio)-1H-imidazol-4-yl)-pyridin-2-yl)-carbamide]
- EC50 (Colo357 cells; 48 h incubation): 14.9 ± 2.6 µM
- EC50 (Panc89 cells): 7.5 ± 3 µM

SMILES: CSc1nc(-c2ccnc(NCCc3c[nH]c4ccccc34)c2)c(-c2ccc(F)cc2)[nH]1 [10e, N-(2-(1H-Indol-3-yl)-ethyl)-4-(5-(4-fluorophenyl)-2-(methylthio)-1H-imidazol-4-yl)-pyridin-2-amine]
- EC50 (HT-29 cells): 9.3 µM

SMILES: COc1cccc(CCC(=O)Nc2cc(-c3nc(SC)[nH]c3-c3ccc(F)cc3)ccn2)c1OC [11c, 3-(2,3-Dimethoxyphenyl)-N-(4-(5-(4-fluorophenyl)-2-(methylthio)-1H-imidazol-4-yl)-pyridin-2-yl)-propanamide]
- EC50 (Colo357 cells; [2]): 1.9 ± 0.6 µM
- EC50 (Panc89 cells; Homo sapiens): 6.1 ± 3 µM

SMILES: COc1cc(CCC(=O)Nc2cc(-c3nc(SC)[nH]c3-c3ccc(F)cc3)ccn2)cc(OC)c1OC [11e, 3-(3,4,5-Trimethoxyphenyl)-N-(4-(5-(4-fluorophenyl)-2-(methylthio)-1H-imidazol-4-yl)-pyridin-2-yl)-propanamide]
- EC50 (Colo357 cells; [2]): 4.5 ± 1.3 µM
- EC50 (Panc89 cells; Homo sapiens): 8.3 ± 2.2 µM

SMILES: COc1ccc(OC)c(-c2cc(C(=O)Nc3cc(-c4nc(SC)[nH]c4-c4ccc(F)cc4)ccn3)n(C)c2)c1 [16b, 4-(2,5-Dimethoxyphenyl)-N-(4-(5-(4-fluorphenyl)-2-(methylthio)-1H-imidazol-4-yl)-pyridin-2-yl)-1-methyl-1H-pyrrole-2-carboxamide]
- EC50 (Colo357 cells; 48 h incubation): 5.7 ± 2.2 µM
- EC50 (MiaPaCa-2 cells; 48 h incubation): 2.3 ± 0.2 µM
- EC50 (Panc-1 cells; 48 h incubation): 5.4 ± 1.5 µM
- EC50 (Panc89 cells): 7.3 ± 1.9 µM

SMILES: COc1ccc(CCC(=O)Nc2cc(-c3nc(SC)[nH]c3-c3ccc(F)cc3)ccn2)c(OC)c1 [11a, 3-(2,4-Dimethoxyphenyl)-N-(4-(5-(4-fluorophenyl)-2-(methylthio)-1H-imidazol-4-yl)-pyridin-2-yl)propanamide]
- EC50 (Colo357 cells; [2]): 4.1 ± 1.7 µM
- EC50 (MiaPaCa-2 cells; [3]): 4.9 ± 0.8 µM
- EC50 (Panc-1 cells; [4]): 7 ± 0.7 µM
- EC50 (Panc89 cells; Homo sapiens): 2.5 ± 1 µM

SMILES: COc1ccc(NC(=O)Nc2cc(-c3nc(SC)[nH]c3-c3ccc(F)cc3)ccn2)c(OC)c1 [12a, 1-(2,4-Dimethoxyphenyl)-3-(4-(5-(4-fluorophenyl)-2-(methylthio)-1H-imidazol-4-yl)-pyridin-2-yl)carbamide]
- EC50 (Colo357 cells; [2]): 17.4 ± 0.04 µM
- EC50 (MiaPaCa-2 cells; [3]): 15.22 ± 0.04 µM
- EC50 (Panc-1 cells; [4]): 16.1 ± 5.6 µM
- EC50 (Panc89 cells; Homo sapiens): 19.6 ± 3.8 µM

SMILES: COc1ccc(C=CC(=O)Nc2cc(-c3nc([S+](C)[O-])[nH]c3-c3ccc(F)cc3)ccn2)c(OC)c1 (stereo not drawn) [compound 2]
- chemical stability in DMSO solution (HPLC analysis) [1]: increasing number of not identifiable degradation products
- discrimination of isoforms δ and ε (CK1δ): at least 40 fold
- IC50 (CK1ε): 0.447 µM

SMILES: COc1cc(OC)c(C=C2C(O)=Nc3ccccc32)c(OC)c1 [IC261]
- IC50 (CK1δ/ε): 1 µM
- IC50 (CK1α): 10 µM

SMILES: COc1ccc(OC)c(NC(=O)Nc2cc(-c3nc(SC)[nH]c3-c3ccc(F)cc3)ccn2)c1 [12b, 1-(2,5-Dimethoxyphenyl)-3-(4-(5-(4-fluorophenyl)-2-(methylthio)-1H-imidazol-4-yl)-pyridin-2-yl)carbamide]
- EC50 (Colo357 cells; 48 h incubation): 15.5 ± 1.6 µM
- EC50 (MiaPaCa-2 cells; 48 h incubation): 11.6 ± 1.1 µM
- EC50 (Panc-1 cells; 48 h incubation): 15.2 ± 2.6 µM

SMILES: COc1ccc(-c2cc(C(=O)Nc3cc(-c4nc(SC)[nH]c4-c4ccc(F)cc4)ccn3)n(C)c2)c(OC)c1 [16a, 4-(2,4-Dimethoxyphenyl)-N-(4-(5-(4-fluorphenyl)-2-(methylthio)-1H-imidazol-4-yl)-pyridin-2-yl)-1-methyl-1H-pyrrole-2-carboxamide]
- EC50 (MiaPaCa-2 cells; [3]): 2.4 ± 0.7 µM
- EC50 (Panc-1 cells; [4]): 5.1 ± 1.6 µM

SMILES: COc1ccc(-c2cc(C(=O)Nc3cc(-c4nc([S+](C)[O-])[nH]c4-c4ccc(F)cc4)ccn3)n(C)c2)c(OC)c1 (stereo not drawn) [16c, 4-(2,4-Dimethoxyphenyl)-N-(4-(5-(4-fluorophenyl)-2-(methylsulfinyl)-1H-imidazol-4-yl)-pyridin-2-yl)-1-methyl-1H-pyrrol-2-carboxamide]
- EC50 (Colo357 cells; [2]): 16.7 ± 5.6 µM
- EC50 (MiaPaCa-2 cells; [3]): 7.7 ± 2.5 µM
- EC50 (Panc-1 cells; [4]): 10.2 ± 3.2 µM

SMILES: COc1ccc(CCC(=O)Nc2cc(-c3nc(SC)[nH]c3-c3ccc(F)cc3)ccn2)cc1OC [11d, 3-(3,4-Dimethoxyphenyl)-N-(4-(5-(4-fluorophenyl)-2-(methylthio)-1H-imidazol-4-yl)-pyridin-2-yl)-propanamide]
- EC50 (Colo357 cells; [2]): 5.9 ± 2.4 µM
- EC50 (Panc89 cells; Homo sapiens): 7.8 ± 0.4 µM
